Reference: the NIST ThermoML archive (doi:10.1016/j.jct.2017.03.033)

Test: molar heat capacity at constant pressure
Conditions: Flow calorimetry

CC(C)C [2-methylpropane]
Conditions	molar heat capacity at constant pressure [J/K/mol]
353.87 K, 10990 kPa, Liquid	150.71
353.87 K, 11500 kPa, Liquid	150.42
353.88 K, 2000 kPa, Liquid	166.17
353.88 K, 3510 kPa, Liquid	160.94
353.88 K, 7510 kPa, Liquid	153.15
353.88 K, 12010 kPa, Liquid	149.9
353.89 K, 5510 kPa, Liquid	157.05
353.89 K, 6510 kPa, Liquid	155.42
353.9 K, 1540 kPa, Liquid	168.38
353.9 K, 4000 kPa, Liquid	160.01
353.9 K, 7990 kPa, Liquid	152.75
363.86 K, 2090 kPa, Liquid	174.19
363.91 K, 2520 kPa, Liquid	171.93
363.92 K, 5030 kPa, Liquid	162.8
363.92 K, 6510 kPa, Liquid	159.43
363.92 K, 8020 kPa, Liquid	156.81
363.93 K, 3000 kPa, Liquid	170.01
363.93 K, 7000 kPa, Liquid	158.5
363.94 K, 5510 kPa, Liquid	161.75
363.94 K, 8500 kPa, Liquid	156.12
363.95 K, 11990 kPa, Liquid	152.05
363.96 K, 4040 kPa, Liquid	165.71
363.96 K, 6000 kPa, Liquid	160.88
363.96 K, 7510 kPa, Liquid	157.92
363.96 K, 9970 kPa, Liquid	153.91
363.96 K, 10510 kPa, Liquid	153.09
363.97 K, 3510 kPa, Liquid	167.22
363.97 K, 8990 kPa, Liquid	155.13
363.97 K, 11000 kPa, Liquid	152.75
363.98 K, 4500 kPa, Liquid	164.66
363.98 K, 9510 kPa, Liquid	154.2
364 K, 11540 kPa, Liquid	152.34
373.85 K, 2530 kPa, Liquid	186.46
373.85 K, 7050 kPa, Liquid	164.54
373.87 K, 7520 kPa, Liquid	163.73
373.89 K, 7980 kPa, Liquid	162.86
373.89 K, 9480 kPa, Liquid	160.48
373.9 K, 5520 kPa, Liquid	169.02
373.9 K, 6000 kPa, Liquid	167.45
373.9 K, 10000 kPa, Liquid	159.78
373.91 K, 9020 kPa, Liquid	161.23
373.92 K, 3010 kPa, Liquid	182.39
373.92 K, 4500 kPa, Liquid	172.97
373.92 K, 8520 kPa, Liquid	162.1
373.93 K, 4020 kPa, Liquid	175.3
373.94 K, 6520 kPa, Liquid	166.64
373.95 K, 5020 kPa, Liquid	171.34
373.95 K, 11010 kPa, Liquid	158.15
373.95 K, 11470 kPa, Liquid	157.45
373.95 K, 11990 kPa, Liquid	157.1
373.97 K, 3530 kPa, Liquid	179.02
373.98 K, 10490 kPa, Liquid	158.44
383.2 K, 2550 kPa, Liquid	209.82
383.21 K, 6010 kPa, Liquid	173.96
383.26 K, 6520 kPa, Liquid	171.81
383.3 K, 3960 kPa, Liquid	188.32
383.32 K, 4990 kPa, Liquid	179.89
383.34 K, 4500 kPa, Liquid	183.72
383.35 K, 3010 kPa, Liquid	201.04
383.42 K, 3490 kPa, Liquid	193.84
383.44 K, 5490 kPa, Liquid	177.21
383.92 K, 6990 kPa, Liquid	170.65
383.92 K, 9990 kPa, Liquid	163.61
383.93 K, 10490 kPa, Liquid	161.7
383.93 K, 12090 kPa, Liquid	159.14
383.94 K, 7980 kPa, Liquid	168.55
383.94 K, 9460 kPa, Liquid	164.25
383.94 K, 11010 kPa, Liquid	160.71
383.94 K, 11570 kPa, Liquid	159.37
383.95 K, 9030 kPa, Liquid	164.95
383.96 K, 7520 kPa, Liquid	169.54
383.97 K, 8470 kPa, Liquid	166.75
393.93 K, 4520 kPa, Liquid	197.56
393.95 K, 3560 kPa, Liquid	222.96
393.96 K, 3090 kPa, Liquid	248.47
393.99 K, 4980 kPa, Liquid	192.79
393.99 K, 7000 kPa, Liquid	177.62
393.99 K, 9000 kPa, Liquid	170.47
394 K, 8010 kPa, Liquid	174.6
394 K, 9500 kPa, Liquid	169.6
394.01 K, 7500 kPa, Liquid	176.28
394.02 K, 6000 kPa, Liquid	183.49
394.02 K, 12020 kPa, Liquid	165.3
394.03 K, 8510 kPa, Liquid	173.38
394.03 K, 11010 kPa, Liquid	166.75
394.04 K, 4060 kPa, Liquid	208.37
394.05 K, 6500 kPa, Liquid	180.59
394.05 K, 9990 kPa, Liquid	168.03
394.05 K, 11510 kPa, Liquid	165.53
394.06 K, 5490 kPa, Liquid	187.33
394.09 K, 10520 kPa, Liquid	167.28
403.41 K, 4080 kPa, Liquid	248.65
403.41 K, 4510 kPa, Liquid	227.2
403.43 K, 5070 kPa, Liquid	209.76
403.44 K, 5520 kPa, Liquid	201.92
403.49 K, 9990 kPa, Liquid	173.15
403.5 K, 8500 kPa, Liquid	177.97
403.51 K, 6500 kPa, Liquid	192.5
403.51 K, 8000 kPa, Liquid	180.88
403.52 K, 6010 kPa, Liquid	195.93
403.53 K, 6990 kPa, Liquid	189.01
403.53 K, 8990 kPa, Liquid	175.94
403.53 K, 10960 kPa, Liquid	172.8
403.53 K, 12000 kPa, Liquid	170.65
403.54 K, 10490 kPa, Liquid	172.91
403.55 K, 9510 kPa, Liquid	174.54
403.55 K, 11490 kPa, Liquid	172.16
403.58 K, 7550 kPa, Liquid	184.77
413.26 K, 4120 kPa, Fluid (supercritical or subcritical phases)	593.02
413.46 K, 4510 kPa, Fluid (supercritical or subcritical phases)	315.55
413.47 K, 5490 kPa, Fluid (supercritical or subcritical phases)	230.16
413.48 K, 6060 kPa, Fluid (supercritical or subcritical phases)	211.86
413.5 K, 4980 kPa, Fluid (supercritical or subcritical phases)	256.44
413.51 K, 6500 kPa, Fluid (supercritical or subcritical phases)	205.29
413.51 K, 7000 kPa, Fluid (supercritical or subcritical phases)	197.5
413.52 K, 11000 kPa, Fluid (supercritical or subcritical phases)	171.93
413.53 K, 7980 kPa, Fluid (supercritical or subcritical phases)	188.9
413.53 K, 8490 kPa, Fluid (supercritical or subcritical phases)	186.05
413.53 K, 10480 kPa, Fluid (supercritical or subcritical phases)	174.77
413.54 K, 7520 kPa, Fluid (supercritical or subcritical phases)	191.28
413.54 K, 10010 kPa, Fluid (supercritical or subcritical phases)	176.92
413.54 K, 11510 kPa, Fluid (supercritical or subcritical phases)	170.01
413.54 K, 11940 kPa, Fluid (supercritical or subcritical phases)	169.43
413.55 K, 8990 kPa, Fluid (supercritical or subcritical phases)	180.93
413.56 K, 9510 kPa, Fluid (supercritical or subcritical phases)	178.9
